Measured values as given in US20210177952A1, “METHOD AND COMPOSITION FOR STIMULATING IMMUNE RESPONSE” (BeyondSpring Pharmaceuticals, Inc., priority 2018, published 2021).

Key:
CD14^+ dendritic cells = test: FACS evaluation of dendritic cell maturation markers CD40, CD80, MHCII and CD86; format: cell-based, Human
Protocol: ISOLATION OF CD14^+ MONOCYTES FROM PBMCs: On Day 1 of the study, PBMC cells were obtained from a human donor according to (1a)-(1d) above. Monocytes were then isolated from these PBMCs on the same day (Day 1) according to steps (2a)-(2k) as follows: (2a) The number of the PBMC cells was determined. (2b) The cell suspension was centrifuged at 300×g for 10 minutes; and the supernatant was aspirated completely. (2c) The cell pellet was re-suspended in 80 μL of FACS buffer per 10^7 total cells. (2d) Per 10^7 total cells, 20 μL of CD14 MicroBeads were added. (2e) Mix well and incubate for 15 minutes in the refrigerator (2 to 8° C.). (2f) The cells were washed by adding 1 to 2 mL of FACS buffer per 10^7 cells and centrifuged at ×1500 rpm for 10 min. (2g) The cells were re-suspended up to 10^8 cells in 500 μL of FACS buffer. (2h) The column was placed in magnetic field of a suitable MACS Separator. (2i) The column was prepared by rinsing with 3 mL of FACS buffer. (2j) The cell suspension was applied onto the column. Unlabeled cells that pass through were collected and the column was washed for three times each with 3 mL of FACS buffer. Total effluent, which was the unlabeled cell fraction, was collected. Washing steps were performed by adding FACS buffer three times. New buffer was added only when the column reservoir became empty. (2k) The column was then removed from the separator and placed on a suitable collection tube. 5 mL of FACS buffer was pipetted onto the column. The magnetically labeled cells were immediately flushed out by firmly pushing the plunger into the column. This fraction represented the CD14 positive monocytes.
DIFFERENTIATION OF MONOCYTES INTO CD14^+ DENDRITIC CELLS: From the CD14 positive monocytes obtained from (2k), dendritic cells (DCs) were differentiated according to steps (2l)-(2p) as follows: (21) 5×10^6 cells were re-suspended per 5 mL of ImmunoCult™ DC Differentiation Medium and mixed well. Then 5 mL of the cell suspension was added to a T-25 cm^2 flask and the cells were incubated for 3 days at 37° C. and 5% CO2. (2m) Meanwhile, in parallel, the monocytes were treated with 3, 1, 0.3, 0.1, 0.01 and 0 μM plinabulin, respectively, in the wells of a 6-well plate and incubated for 3 days. (2n) On Day 4, the medium was removed from the T-25 cm^2 flask by pipetting and added to a 14-mL centrifuge tube. 5 mL of fresh ImmunoCult™ DC Differentiation Medium was quickly added to the culture flask. (2o) The 14 mL tube containing medium and cells (from step (2n)) was centrifuged at 300×g for 10 min. The supernatant was removed and discarded. Cells were resuspended in a small volume (i.e. 50 μL or up to 10% of the original volume) of fresh ImmunoCult™ DC Differentiation Medium and returned to the culture flask in order to save non-adherent or loosely adherent cells. The cells were then incubated at 37° C. for 2 days. (2p) Also on Day 4, 90% differentiation medium for the DCs were removed from the 6-well plate, and 90% fresh differentiation medium were added. The cells were treated with 3, 1, 0.3, 0.1, 0.01 and 0 μM plinabulin as stated above in (2m) (Study Arm #1). After another 2 days incubation, the dendritic cell maturation was evaluated by FACS for CD40, CD80, MHCII and CD86. The rest cells continued without treatment to steps (4a)-(4d) below for MLR assay. […]

[1] = mice; cited from earlier work
[2] = treated during differentiation or maturation

CC(C)(C)c1[nH]cnc1/C=c1\[nH]c(=O)/c(=C/c2ccccc2)[nH]c1=O [Plinabulin, (3Z,6Z)-3-Benzylidene-6-{[5-(2-methyl-2-propanyl)-1H-imidazol-4-yl]methylene}-2,5-piperazinedione]
CD86 expression on DCs (CD14^+ dendritic cells; cells treated during DC maturation (Study Arm #A2)): increased CD86 expression on DCs
CD86 expression on DCs (CD14^+ dendritic cells; cells treated during differentiation from CD14 cells (Study Arm #A1)): increased CD86 expression on DCs
CD40 expression on DCs (CD14^+ dendritic cells; [2]): no discernible increase
CD80 expression on DCs (CD14^+ dendritic cells; [2]): no discernible increase
MHCII expression on DCs (CD14^+ dendritic cells; [2]): no discernible increase
plasma elimination half-life [1]: 1.5 to 2 h
